Results reported in US10111427B2, “Formulation for improving the yield and quality of fiber in cotton plants” (Council of Scientific & Industrial Research, priority 2015, dated 2018).

Columns and labels:
[1] = tested on: cultured cotton ovules; test: Ovule culture with different phytohormones with and without Anacardic acid; type: cell-based; conditions: 12 DPA; for growth in cultures having Anacardic acid with phytohormone: Anacardic acid added at 3 DPA, in comparison to control where only phytohormones were used; for Lignin content of ovules cultured with Anacardic acid and phytohormone: toluidine blue, in comparison to control wherein only phytohormones are used
Method: To check the effect of the phytohormones on fiber development for better yield and quality of fibers, different phytohormones and their combinations were tested first tested on cultured ovules. Cotton buds and flowers at 1 DPA stage were plucked from the plants for the ovule culture. Ovaries were surface sterilized using 1% Mercuric chloride solution and washed three times with MQ water. Ovules were excised using sterilized fine forceps and brushes. Isolted ovules (3-5) were transferred to culture media with different 5 μM of 1-Naphthaleneacetic acid (1NAA), Indole-3-acetic acid (IAA), 2,4-Dichlorophenoxyacetic acid (2,4-D), Kinetin, Zeatin and 0.5 μM Gibberellic acid (GA3)along with untreated ovules (having no phytohormones) placed in 35mm tissue culture dishes in two sets. All the dishes were further places in incubators set at 32° C. In one set of dishes, Anacardic acid was added to 3 DPA stage, while the other set was used to control. It has been observed that at 12 DPA stage growth in cultures having Anacardic acid with phytohormones like 1-NAA, IAA, 2,4-D and GA3 at […] was better in comparison to the control conditions, where only phytohormones were used (FIG. 8). […] For the lignin qualification, ovules were boiled in distilled water with a drop of concentrated HCl to dissolve waxes and leave the fibers hydrophilic. After rinsing in distilled water, three ovules per sample were places in a 50 ml falcon tube and stained with 30 ml. of toluidine blue solution (0.018% toluidine blue, 0.016 M Na2HPO4, 0.01 M citric acid, pH 4.5) for 30 s. After staining, the ovules were rinsed thoroughly with distilled water and briefly laid on absorbent paper to remove excess water. Ovules were then returned to 50 ml falcon tubes and 50 ml of destaining solution comprising glacial acetic acid, ethanol and water (10:95:5) added. After vigorous shaking and destaining for at least 1 h, 200μl of the solution was pipetted in triplicate into 96-well flat bottom microtiter plates for measurement of absorbance at 624 nm in a plate reader.

[2] = tested on: cultured cotton ovules; test: In-vitro cotton ovule culture assay, phenotypic observation of fiber growth; type: cell-based; conditions: tested 1-NAA 1, 5, 10, 20 μM; GA3 0.1, 0.5, 1, 5 μM; Anacardic acid 2, 4, 8, 10 μM; 32° C.
Description: In the present invention, Anacardic acid may be dissolved in solvents selected from Dimethyl Sulfoxide (DMSO), Dimethyl formamide (DMFO), ethanol methanol, dichloromethane, ether, petroleum ether and ethyl acetate in a suitable concentration and mixed with 1Naphthaleneacetic Acid (1-NAA) and Gibberellic acid (GA3). For standardization of appropriate concentrations of phytohormones and Anacardic acid for better yield and quality of fiber, the formulation and its components were first tested on cultured ovules. Different concentrations of 1-NAA (1, 5, 10 and 20 μM) and GA3 (0.1, 0.5, 1 and 5 μM) were tested in ovule culture media and established that fiber growth was better at 5 μM 1-NAA and 0.5 μM GA3. Similarly, different concentrations of Anacardic acid (2, 4, 8 and 10 μM) were also used and established that fiber growth was better at 8 μM Anacardic acid in media in comparison to other concentrations.
Formulation was diluted with modified ½ MSL (Murasighe Skoog Liquid) media having 2% sucrose for a final concentration of Anacardic acid to 8 μM, 1-NAA to 5 μM and GA3 to 0.5 μM. This formulation was then used to culture cotton, ovules excised at −3 DPA (Day Post Anthesis) to study its effect on fiber initiation and at 0 DPA for fiber elongation. Ovules were examined (at 3 DPA for initiation and at 12 DPA for elongation stage) and photographed (Example 1). […] Cotton ovules cultured with the formulation (1-NAA+GA3+ Anacardic acid) in culture media show higher number of initiating fibers and better growth in comparison to control ovules (only phytohormones treated).
For standardization of appropriate concentrations of phytohormones and Anacardic acid for better yield and quality of fiber, the formulation and its components were first tested on cultured ovules. […]
Finally, in-vitro ovule culture experiment was performed with 8 μM Anacardic acid, 5 μM 1-NAA and 0.5 μM GA3 in media along with control sample having only 5 μM 1-NAA and 0.5 μM GA3. The phenotypic observations were recorded at 3 DPA for initiation stage and at 12 DPA for elongation stage (FIG. 1).

| Structure (SMILES) | growth in cultures having Anacardic acid with phytohormone [1] | Lignin content of ovules cultured with Anacardic acid and phytohormone [1] | concentration at which fiber growth in ovule culture was better [2] [µM] |
| --- | --- | --- | --- |
| O=C(O)Cc1c[nH]c2ccccc12 [IAA, Indole-3-acetic acid] | better | higher |  |
| CCCCCCCCCCCCCCCc1cccc(O)c1C(=O)O [Anacardic acid] |  |  | 8 |
| O=C(O)Cc1cccc2ccccc12 [1-NAA, 1-Naphthaleneacetic acid] | better | higher | 5 |
| C=C1C[C@]23C[C@@]1(O)CC[C@H]2[C@@]12C=C[C@H](O)[C@@](C)(C(=O)O1)[C@H]2[C@@H]3C(=O)O [GA3, Gibberellic acid] | better | higher | 0.5 |
| O=C(O)COc1ccc(Cl)cc1Cl [2,4-D, 2,4-Dichlorophenoxyacetic acid] | better | higher |  |
